Assay results from patent US9243281B2, “Neuroprotective chemicals and methods for identifying and using same” (Board of Regents of The University of Texas System, priority 2013, dated 2016).

Each molecule was assayed against T1, p70 (NAMPT) (Homo sapiens, UniProt P43490) (assay: binding competition for photo-crosslinking of P7C3-S326 to p70 in H2122 cells). Settings: 0.3 μM P7C3-S326 plus 5 μM competitor, p70 band intensity, P7C3-S326 alone compared with plus competitor, vehicle 1.0.
T1 construct: endogenous in cells; host or cells: H2122 lung cancer cells
Protocol: Cultured cells were co-exposed to P7C3-S326 (0.3 uM) and the individual P7C3 variants (5 uM), exposed to UV light, lysed, clicked to a fluorescent dye and run on SDS gels (FIG. 11).
P7C3-S326 was diluted to 0.3 μM in culture medium to treat H2122 cells. After incubation at 37° C. for 2 hours, H2122 cells were irradiated for 15 minutes under 306 nm ultraviolet light in a Stratalinker 2400 (Stratagene). Cells were then harvested by dissolving in 1% SDS lysis buffer 50 mM HEPES, pH 8.0, 2 mM MgCl2, 10 mM KCl, 1% SDS, 50 units/ml of Benzonase (Sigma), supplemented with Sigmafast protease inhibitor (Sigma).
The reaction was incubated at room temperature with constant agitation at 1,000 rpm on a thermomixer (Eppendorf) for 1 hour. Samples were then mixed with SDS sample loading buffer and loaded on an 8% SDS-PAGE gel, separated, and imaged using a Typhoon imager (filter settings: excitation 533 nm, emission 555 nm, and high sensitivity).
H2122 cells were incubated with the P7C3-S326 (0.3 μM) in the absence or presence of P7C3 analogs for 2 hours following by UV crosslinking. […] The samples were run on SDS-PAGE gels scanned using a Typhoon Imager. The p70 band intensity was analyzed and quantified by Image J, and the relative intensity in each assay was normalized to that of the DMSO control.

T1 sequence (P43490 whole entry): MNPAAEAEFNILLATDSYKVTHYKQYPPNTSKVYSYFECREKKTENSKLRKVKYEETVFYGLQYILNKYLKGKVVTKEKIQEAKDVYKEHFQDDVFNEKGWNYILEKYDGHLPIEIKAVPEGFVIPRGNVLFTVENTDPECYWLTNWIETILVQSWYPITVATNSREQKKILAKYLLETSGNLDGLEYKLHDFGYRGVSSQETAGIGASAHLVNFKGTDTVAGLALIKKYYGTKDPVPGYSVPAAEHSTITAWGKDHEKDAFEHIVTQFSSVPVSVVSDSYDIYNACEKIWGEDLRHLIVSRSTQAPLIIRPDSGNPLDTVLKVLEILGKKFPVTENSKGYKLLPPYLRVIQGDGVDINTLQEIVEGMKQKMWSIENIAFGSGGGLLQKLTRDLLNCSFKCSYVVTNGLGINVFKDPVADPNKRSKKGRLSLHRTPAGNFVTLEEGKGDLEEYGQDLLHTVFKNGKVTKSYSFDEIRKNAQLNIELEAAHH

SMILES | Binding competition
CNCCCC1c2ccccc2C=Cc2ccccc21.Cl [S90, Protriptyline, reference compound] | 1.4
Oc1cccc(SCC(O)CC2c3ccc(Br)cc3-c3cc(Br)ccc32)c1 (stereo not drawn) [S91] | 3.4
Oc1ccc(SCC(O)Cn2c3ccc(Br)cc3c3cc(Br)ccc32)cc1 (stereo not drawn) [S92] | 2.5
O=S(=O)(CC(O)Cn1c2ccc(Br)cc2c2cc(Br)ccc21)c1cccc(O)c1 (stereo not drawn) [S93] | 1.4
O=S(=O)(CC(O)Cn1c2ccc(Br)cc2c2cc(Br)ccc21)c1ccc(O)cc1 (stereo not drawn) [S94] | 3.8
Nc1cccc(SCC(O)Cn2c3ccc(Br)cc3c3cc(Br)ccc32)c1 (stereo not drawn) [S95] | 4.6
Nc1ccc(SCC(O)Cn2c3ccc(Br)cc3c3cc(Br)ccc32)cc1 (stereo not drawn) [S96] | 3.9
NC(COc1ccccc1)Cn1c2ccc(Br)cc2c2cc(Br)ccc21 (stereo not drawn) [S97] | 2.0
O=C(COc1cccc(SCC(O)Cn2c3ccc(Br)cc3c3cc(Br)ccc32)c1)NCc1ccccc1 (stereo not drawn) [S98] | 1.1
O=C(COc1ccc(SCC(O)Cn2c3ccc(Br)cc3c3cc(Br)ccc32)cc1)NCc1ccccc1 (stereo not drawn) [S99] | 2.5
OC(COc1ccccc1)Cn1c2c(c3cc(Br)ccc31)CNCC2 (stereo not drawn) [S105] | 1.2
OC(COc1ccccc1)Cn1c2c(c3cc(Br)ccc31)CN(C1CC1)CC2 (stereo not drawn) [S106] | 1.4
N#CN1CCc2c(c3cc(Br)ccc3n2CC(O)COc2ccccc2)C1 (stereo not drawn) [S107] | 3.5
FC(COc1ccccc1)Cn1c2c(c3cc(Br)ccc31)CNCC2 (stereo not drawn) [S108] | 1.0
OC(CNC1CCCCC1)Cn1c2ccc(Br)cc2c2cc(Br)ccc21 (stereo not drawn) [S109] | 1.2
N#Cc1ccc2c(c1)c1cc(C#N)ccc1n2CC(O)CSc1ccccc1 (stereo not drawn) [S110] | 6.2
N#Cc1ccc2c(c1)c1cc(C#N)ccc1n2CC(O)COc1ccccc1 (stereo not drawn) [S111] | 4.1
NNCCc1ccccc1 [S116, Nardi, reference compound] | 1.2
N[C@@H]1C[C@H]1c1ccccc1 [S118, Parnate, reference compound] | 1.3
CN(C)CCCC1(c2ccc(F)cc2)OCc2cc(C#N)ccc21 (stereo not drawn) [S119, Celexa, reference compound] | 1.2
CN(C)CCCN1c2ccccc2Sc2ccc(Cl)cc21 [S121, CPZ, reference compound] | 2.3
CNCCC(Oc1ccc(C(F)(F)F)cc1)c1ccccc1 (stereo not drawn) [S122, Prozac, reference compound] | 1.4
CN[C@H]1CC[C@@H](c2ccc(Cl)c(Cl)c2)c2ccccc21 [S123, Zoloft, reference compound] | 1.5
COc1ccc([C@H](CN(C)C)C2(O)CCCCC2)cc1 [S124, Effexor, reference compound] | 1.1

What follows are molecules tested on hippocampal neurogenesis (Dentate Gyrus) (assay: in vivo neurogenesis assay (BrdU+ cells in dentate gyrus)). Settings: living mice; vehicle (DMSO) 7.3.
Design: species or system mice
Description: The screen was simple in concept. With help from chemists in the Department of Biochemistry at UTSWMC, we selected 1,000 druglike chemicals from the 250,000 compounds in our high throughput screening center. The compounds were selected to preserve representative chemical diversity of the entire library. They were further selected to enhance the representation of chiral molecules, and to avoid untoward chemical properties such as reactive moieties. The 1,000 molecules were randomly pooled into groups of ten, and each pool was administered directly into the left ventricle of two adult mice. Intracranial delivery was facilitated by stereotactic positioning of a canula fed directly by an Alzet mini-pump containing the mixture of ten chemicals. The drug mixture was administered over a week-long period at concentrations anticipated to deliver mid-nanomolar levels of the ten test compounds. Daily injections of the thymidine analog, bromodeoxyuridine (BrdU), were coadministered in order to monitor the formation of new hippocampal nerve cells. Following compound administration, animals were sacrificed such that brain tissue could be recovered, sectioned and stained with antibodies to BrdU. […]

SMILES | Neurogenesis # BrdU+ Cells (X10E06)/mm3 Dentate Gyrus
CNCCCC1c2ccccc2C=Cc2ccccc21.Cl [S90, Protriptyline, reference compound] | 11.1 (X10E06)/mm3
Oc1cccc(SCC(O)CC2c3ccc(Br)cc3-c3cc(Br)ccc32)c1 (stereo not drawn) [S91] | 8.2 (X10E06)/mm3
Oc1ccc(SCC(O)Cn2c3ccc(Br)cc3c3cc(Br)ccc32)cc1 (stereo not drawn) [S92] | 8.4 (X10E06)/mm3
O=S(=O)(CC(O)Cn1c2ccc(Br)cc2c2cc(Br)ccc21)c1cccc(O)c1 (stereo not drawn) [S93] | 11.9 (X10E06)/mm3
O=S(=O)(CC(O)Cn1c2ccc(Br)cc2c2cc(Br)ccc21)c1ccc(O)cc1 (stereo not drawn) [S94] | 8.5 (X10E06)/mm3
Nc1cccc(SCC(O)Cn2c3ccc(Br)cc3c3cc(Br)ccc32)c1 (stereo not drawn) [S95] | 8.6 (X10E06)/mm3
Nc1ccc(SCC(O)Cn2c3ccc(Br)cc3c3cc(Br)ccc32)cc1 (stereo not drawn) [S96] | 8.7 (X10E06)/mm3
NC(COc1ccccc1)Cn1c2ccc(Br)cc2c2cc(Br)ccc21 (stereo not drawn) [S97] | 7.6 (X10E06)/mm3
O=C(COc1cccc(SCC(O)Cn2c3ccc(Br)cc3c3cc(Br)ccc32)c1)NCc1ccccc1 (stereo not drawn) [S98] | 6.9 (X10E06)/mm3
O=C(COc1ccc(SCC(O)Cn2c3ccc(Br)cc3c3cc(Br)ccc32)cc1)NCc1ccccc1 (stereo not drawn) [S99] | 7.6 (X10E06)/mm3
OC(COc1ccccc1)Cn1c2c(c3cc(Br)ccc31)CNCC2 (stereo not drawn) [S105] | 10.8 (X10E06)/mm3
OC(COc1ccccc1)Cn1c2c(c3cc(Br)ccc31)CN(C1CC1)CC2 (stereo not drawn) [S106] | 10.9 (X10E06)/mm3
N#CN1CCc2c(c3cc(Br)ccc3n2CC(O)COc2ccccc2)C1 (stereo not drawn) [S107] | 7.3 (X10E06)/mm3
FC(COc1ccccc1)Cn1c2c(c3cc(Br)ccc31)CNCC2 (stereo not drawn) [S108] | 7.6 (X10E06)/mm3
OC(CNC1CCCCC1)Cn1c2ccc(Br)cc2c2cc(Br)ccc21 (stereo not drawn) [S109] | 9.4 (X10E06)/mm3
N#Cc1ccc2c(c1)c1cc(C#N)ccc1n2CC(O)CSc1ccccc1 (stereo not drawn) [S110] | 10.5 (X10E06)/mm3
N#Cc1ccc2c(c1)c1cc(C#N)ccc1n2CC(O)COc1ccccc1 (stereo not drawn) [S111] | 12.3 (X10E06)/mm3
NNCCc1ccccc1 [S116, Nardi, reference compound] | 11.0 (X10E06)/mm3
CN(C)CCCC1(c2ccc(F)cc2)OCc2cc(C#N)ccc21 (stereo not drawn) [S119, Celexa, reference compound] | 8.6 (X10E06)/mm3
CN(C)CCCN1c2ccccc2Sc2ccc(Cl)cc21 [S121, CPZ, reference compound] | 11.1 (X10E06)/mm3
CNCCC(Oc1ccc(C(F)(F)F)cc1)c1ccccc1 (stereo not drawn) [S122, Prozac, reference compound] | 10.0 (X10E06)/mm3
CN[C@H]1CC[C@@H](c2ccc(Cl)c(Cl)c2)c2ccccc21 [S123, Zoloft, reference compound] | 9.4 (X10E06)/mm3
COc1ccc([C@H](CN(C)C)C2(O)CCCCC2)cc1 [S124, Effexor, reference compound] | 8.9 (X10E06)/mm3

Same assay, conditions: mouse, in vivo

SMILES | Neurogenesis # BrdU+ Cells (X10E06)/mm3 Dentate Gyrus
N[C@@H]1C[C@H]1c1ccccc1 [S118, Parnate, reference compound] | 8.3 (X10E06)/mm3
